In PubChem BioAssay (NCI):
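Assay format: 96-well plates, 48-hour exposure. GI50: concentration for 50% inhibition of growth. At the TGI there is no net growth.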

Experiments:
Assay in all cases: NCI tumour cell line growth inhibition, 48 h
[1] = tested on: RXF 393 renal
[2] = tested on: SN12C renal
[3] = tested on: UACC-257 melanoma
[4] = tested on: RPMI-8226 leukemia
[5] = tested on: SNB-19 CNS
[6] = tested on: MOLT-4 leukemia
[7] = tested on: SK-OV-3 ovarian
[8] = tested on: T-47D breast
[9] = tested on: KM12 colon
[10] = tested on: DU-145 prostate
[11] = tested on: M14 melanoma
[12] = tested on: TK-10 renal
[13] = tested on: UO-31 renal
[14] = tested on: NCI-H226 lung
[15] = tested on: SR leukemia
[16] = tested on: EKVX NSCLC
[17] = tested on: NCI-H23 lung
[18] = tested on: BT-549 breast
[19] = tested on: MDA-MB-231 breast
[20] = tested on: NCI-H522 lung
[21] = tested on: CAKI-1 renal
[22] = tested on: K-562 leukemia
[23] = tested on: MALME-3M melanoma
[24] = tested on: HCT-116 colon
[25] = tested on: SF-295 CNS
[26] = tested on: SF-539 CNS
[27] = tested on: HCT-15 colon
[28] = tested on: HS 578T breast
[29] = tested on: HOP-92 NSCLC

Work on `C=C(C)[C@@H]1CC[C@]2(C(=O)OC)CC[C@]3(C)[C@H](CC[C@@H]4[C@@]5(C)CC[C@H](N)C(C)(C)[C@@H]5CC[C@]43C)[C@@H]12` yielded a TGI [1] of 3.07 µM, a GI50 [2] of 1.75 µM and a TGI [2] of 3.27 µM. The GI50 [3] was 1.89 µM, the TGI [3] was 4.02 µM and the GI50 [4] was 2.72 µM. It also gave a TGI [4] of 8.81 µM, a GI50 [5] of 1.72 µM and a TGI [5] of 3.24 µM. It also gave a GI50 [6] of 2.5 µM, a TGI [6] of 6.02 µM and a GI50 [7] of 2.22 µM. For the same molecule, the TGI [7] was 5.45 µM, the GI50 [8] was 1.88 µM and the TGI [8] was 3.82 µM. For the same molecule, the GI50 [9] was 1.77 µM, the TGI [9] was 3.31 µM and the GI50 [10] was 1.85 µM. The TGI [10] was 3.37 µM, the GI50 [11] was 1.99 µM and the TGI [11] was 4.28 µM. For the same molecule, the GI50 [12] was 1.89 µM, the TGI [12] was 3.47 µM and the GI50 [13] was 1.51 µM. The TGI [13] was 2.84 µM, the GI50 [14] was 1.94 µM and the TGI [14] was 3.77 µM. It also gave a GI50 [15] of 0.379 µM, a TGI [15] of 3.05 µM and a GI50 [16] of 1.83 µM. It also gave a TGI [16] of 3.32 µM, a GI50 [17] of 1.78 µM and a TGI [17] of 3.31 µM. For the same molecule, the GI50 [18] was 2.47 µM, the TGI [18] was 5.59 µM and the GI50 [19] was 1.78 µM. It also gave a TGI [19] of 3.19 µM, a GI50 [20] of 1.75 µM and a TGI [20] of 3.39 µM. The GI50 [21] was 1.62 µM, the TGI [21] was 3.02 µM and the GI50 [22] was 0.711 µM. It also gave a TGI [22] of 12.7 µM, a GI50 [23] of 1.71 µM and a TGI [23] of 3.09 µM. The GI50 [24] was 1.48 µM, the TGI [24] was 3.26 µM and the GI50 [25] was 1.7 µM. For the same molecule, the TGI [25] was 3.13 µM, the GI50 [26] was 1.63 µM and the TGI [26] was 3 µM. For the same molecule, the GI50 [27] was 1.64 µM, the TGI [27] was 3.05 µM and the GI50 [28] was 2 µM. The TGI [28] was 4.29 µM, the GI50 [29] was 1.58 µM and the TGI [29] was 3.13 µM.
